Results on 14 compounds are retold here after patent publication US20170008888A1 (KYORIN PHARMACEUTICAL CO., LTD., priority 2014, published 2017).

What all share (type): binding
The target of one assay is T1, TAO2 (Homo sapiens, UniProt Q9UL54).
T1 construct: screened for activity against several kinases in Jurkat cells; endogenous in cells; host or cells: Jurkat cell lysate
T1 sequence (Q9UL54 1-1235): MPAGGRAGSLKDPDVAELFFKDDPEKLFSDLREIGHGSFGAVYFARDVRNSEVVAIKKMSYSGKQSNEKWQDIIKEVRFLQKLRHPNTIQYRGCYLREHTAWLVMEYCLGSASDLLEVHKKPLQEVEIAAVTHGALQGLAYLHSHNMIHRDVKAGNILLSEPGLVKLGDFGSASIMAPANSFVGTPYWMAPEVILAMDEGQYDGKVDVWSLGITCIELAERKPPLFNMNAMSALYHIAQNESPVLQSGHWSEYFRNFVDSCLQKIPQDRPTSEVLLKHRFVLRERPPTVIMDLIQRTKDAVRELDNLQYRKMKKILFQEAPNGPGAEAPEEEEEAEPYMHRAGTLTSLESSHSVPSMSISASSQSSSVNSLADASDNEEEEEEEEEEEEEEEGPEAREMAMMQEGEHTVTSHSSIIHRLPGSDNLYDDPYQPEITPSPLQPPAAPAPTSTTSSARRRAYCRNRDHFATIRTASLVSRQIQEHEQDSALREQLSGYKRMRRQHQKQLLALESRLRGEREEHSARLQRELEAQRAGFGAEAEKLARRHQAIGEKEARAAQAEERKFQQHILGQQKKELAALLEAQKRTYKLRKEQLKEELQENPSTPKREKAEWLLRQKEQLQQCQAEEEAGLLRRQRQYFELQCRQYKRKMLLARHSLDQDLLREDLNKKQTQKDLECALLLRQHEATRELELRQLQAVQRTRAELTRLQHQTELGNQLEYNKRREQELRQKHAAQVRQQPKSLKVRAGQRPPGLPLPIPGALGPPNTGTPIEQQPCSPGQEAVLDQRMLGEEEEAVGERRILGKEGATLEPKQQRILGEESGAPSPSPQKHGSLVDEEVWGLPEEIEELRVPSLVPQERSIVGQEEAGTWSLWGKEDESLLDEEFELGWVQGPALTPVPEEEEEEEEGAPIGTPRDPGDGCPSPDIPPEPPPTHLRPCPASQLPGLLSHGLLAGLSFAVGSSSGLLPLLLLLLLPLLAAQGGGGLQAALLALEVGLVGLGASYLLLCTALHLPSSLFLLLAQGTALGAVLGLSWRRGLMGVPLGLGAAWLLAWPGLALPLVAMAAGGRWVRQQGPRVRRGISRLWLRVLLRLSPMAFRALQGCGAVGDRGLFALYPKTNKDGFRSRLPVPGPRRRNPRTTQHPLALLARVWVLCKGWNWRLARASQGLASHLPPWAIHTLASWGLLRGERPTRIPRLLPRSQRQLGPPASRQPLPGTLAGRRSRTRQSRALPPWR
The assay is described as follows: Probe-based (AX9989) kinase profiling in Jurkat lysate: TAO2. The following applies: read-out: Kinase inhibition % at indicated screening concentration: TAO2; for inhibition at 1 µM: screening concentration 1.0 μM; for inhibition at 0.1 µM: screening concentration 0.1 μM. The procedure, abridged:
(§1)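 Percent inhibition was derived from reduced LC/MS fragment intensities of probe-labeled peptides relative to compound-free controls. Before labeling with 5 μM AX9989, Mn2+-supplemented (20 mM) Jurkat lysate was exposed to compound for 15 min at room temperature.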

In a further assay the target is T2, ERK5 (Homo sapiens, UniProt Q13164).
T2 construct: screened for activity against several kinases in Jurkat cells; endogenous in cells; host or cells: Jurkat cell lysate
The assay is described as follows: Probe-based (AX9989 acyl phosphate ATP probe) kinase profiling in Jurkat lysate: ERK5. The following applies: for IC50: calculated from percent inhibition of AX9989 labeling and the screening concentration, Jurkat lysate; for inhibition at 1 µM: screening concentration 1.0 μM; for inhibition at 1 µM / inhibition at 0.1 µM: read-out: Kinase inhibition % at indicated screening concentration: ERK5; for inhibition at 0.1 µM: screening concentration 0.1 μM. The procedure, abridged: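 ERK5 IC50 values came from percent inhibition at the screening concentration, measured as loss of LC/MS signal of probe-labelled active-site peptides. Compound was added for 15 min at room temperature to Jurkat lysate (5 mg/ml, 20 mM MnCl2) before labelling with AX9989 ATP acyl phosphate probe at 5 μM.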

Assay [1] concerns the target T3, BRD4 bromodomain domain I [BRD4(1)] (Homo sapiens, UniProt O60885).
T3 construct: BRD4 bromodomain domain I [BRD4(1)]; purchased Cayman Chemicals
Kind of assay: BRD4 bromodomain domain 1 inhibition assay (TR-FRET). The following applies: screening concentration 10 μM. The procedure, abridged: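 0.5% DMSO, in triplicate, using Cayman BRD4(1) TR-FRET protocol with slight modification. 670/620 nm ratio normalized to 10 μM JQ1, with DMSO control set as 0% inhibition.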
Background: TR-FRET usually uses a lanthanide donor and a delayed reading to cut background.

The target in a further assay is T4, JAK1 (Homo sapiens, UniProt P23458).
T4 construct: screened for activity against several kinases in Jurkat cells; endogenous in cells; host or cells: Jurkat cell lysate
Kind of assay: Probe-based (AX9989) kinase profiling in Jurkat lysate: JAK1. The following applies: read-out: Kinase inhibition % at indicated screening concentration: JAK1; for inhibition at 1 µM: screening concentration 1.0 μM; for inhibition at 0.1 µM: screening concentration 0.1 μM. The essentials: as §1

A further assay has as its target T5, ACK (Homo sapiens, UniProt Q07912).
T5 construct: screened for activity against several kinases in Jurkat cells; endogenous in cells; host or cells: Jurkat cell lysate
The assay is described as follows: Probe-based (AX9989) kinase profiling in Jurkat lysate: ACK. The following applies: read-out: Kinase inhibition % at indicated screening concentration: ACK; for inhibition at 1 µM: screening concentration 1.0 μM; for inhibition at 0.1 µM: screening concentration 0.1 μM. The procedure, abridged: as §1

For another assay, the system named is AurB or AurC. The assay is described as follows: Probe-based (AX9989) kinase profiling in Jurkat lysate: AurB or AurC. The essentials:
as §1

T5 sequence (Q07912 whole entry): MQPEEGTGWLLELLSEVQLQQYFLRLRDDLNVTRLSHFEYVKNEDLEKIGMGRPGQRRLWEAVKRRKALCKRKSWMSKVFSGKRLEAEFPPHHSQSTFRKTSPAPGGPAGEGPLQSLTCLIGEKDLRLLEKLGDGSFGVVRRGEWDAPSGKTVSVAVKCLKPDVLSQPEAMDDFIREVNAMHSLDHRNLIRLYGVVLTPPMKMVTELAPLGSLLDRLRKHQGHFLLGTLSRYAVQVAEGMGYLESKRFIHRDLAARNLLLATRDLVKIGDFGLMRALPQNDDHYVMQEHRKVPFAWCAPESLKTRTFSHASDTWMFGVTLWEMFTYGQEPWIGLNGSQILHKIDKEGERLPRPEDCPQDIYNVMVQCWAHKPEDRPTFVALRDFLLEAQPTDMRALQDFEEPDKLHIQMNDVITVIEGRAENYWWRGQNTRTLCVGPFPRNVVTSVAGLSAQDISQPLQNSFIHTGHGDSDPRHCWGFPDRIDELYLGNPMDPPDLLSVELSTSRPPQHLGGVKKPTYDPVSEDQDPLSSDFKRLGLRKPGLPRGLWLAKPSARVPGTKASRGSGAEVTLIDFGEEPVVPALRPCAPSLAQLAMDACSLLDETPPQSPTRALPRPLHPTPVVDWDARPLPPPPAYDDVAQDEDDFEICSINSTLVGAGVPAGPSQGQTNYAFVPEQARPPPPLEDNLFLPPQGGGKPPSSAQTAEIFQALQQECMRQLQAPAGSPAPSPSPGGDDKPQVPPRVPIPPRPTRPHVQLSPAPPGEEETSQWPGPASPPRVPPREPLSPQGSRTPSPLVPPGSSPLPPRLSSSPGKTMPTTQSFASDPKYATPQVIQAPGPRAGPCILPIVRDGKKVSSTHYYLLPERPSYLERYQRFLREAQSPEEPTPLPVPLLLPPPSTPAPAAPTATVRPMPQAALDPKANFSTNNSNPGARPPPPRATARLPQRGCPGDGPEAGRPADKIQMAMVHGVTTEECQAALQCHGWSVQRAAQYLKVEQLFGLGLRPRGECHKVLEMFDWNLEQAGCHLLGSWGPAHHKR
T2 sequence (Q13164 whole entry): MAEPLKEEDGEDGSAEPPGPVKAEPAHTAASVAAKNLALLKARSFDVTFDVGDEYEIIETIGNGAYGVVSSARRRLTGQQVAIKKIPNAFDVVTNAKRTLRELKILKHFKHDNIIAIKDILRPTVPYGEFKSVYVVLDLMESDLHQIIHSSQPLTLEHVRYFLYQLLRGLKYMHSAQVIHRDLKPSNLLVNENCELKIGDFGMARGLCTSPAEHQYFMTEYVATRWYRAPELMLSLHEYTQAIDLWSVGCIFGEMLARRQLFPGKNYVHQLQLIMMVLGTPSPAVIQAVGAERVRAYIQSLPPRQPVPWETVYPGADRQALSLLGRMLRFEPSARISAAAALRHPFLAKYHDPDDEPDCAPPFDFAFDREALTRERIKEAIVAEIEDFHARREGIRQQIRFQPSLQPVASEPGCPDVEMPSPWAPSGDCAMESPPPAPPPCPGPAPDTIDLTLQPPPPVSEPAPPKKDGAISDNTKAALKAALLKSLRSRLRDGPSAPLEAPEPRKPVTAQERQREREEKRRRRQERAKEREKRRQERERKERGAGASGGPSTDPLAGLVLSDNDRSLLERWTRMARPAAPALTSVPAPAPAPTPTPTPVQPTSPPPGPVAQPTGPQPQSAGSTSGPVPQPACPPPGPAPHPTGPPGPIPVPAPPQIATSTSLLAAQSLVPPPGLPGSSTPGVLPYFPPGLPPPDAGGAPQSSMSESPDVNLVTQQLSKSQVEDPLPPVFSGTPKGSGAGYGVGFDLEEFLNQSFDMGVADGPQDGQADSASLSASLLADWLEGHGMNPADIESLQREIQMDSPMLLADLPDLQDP
T4 sequence (P23458 whole entry): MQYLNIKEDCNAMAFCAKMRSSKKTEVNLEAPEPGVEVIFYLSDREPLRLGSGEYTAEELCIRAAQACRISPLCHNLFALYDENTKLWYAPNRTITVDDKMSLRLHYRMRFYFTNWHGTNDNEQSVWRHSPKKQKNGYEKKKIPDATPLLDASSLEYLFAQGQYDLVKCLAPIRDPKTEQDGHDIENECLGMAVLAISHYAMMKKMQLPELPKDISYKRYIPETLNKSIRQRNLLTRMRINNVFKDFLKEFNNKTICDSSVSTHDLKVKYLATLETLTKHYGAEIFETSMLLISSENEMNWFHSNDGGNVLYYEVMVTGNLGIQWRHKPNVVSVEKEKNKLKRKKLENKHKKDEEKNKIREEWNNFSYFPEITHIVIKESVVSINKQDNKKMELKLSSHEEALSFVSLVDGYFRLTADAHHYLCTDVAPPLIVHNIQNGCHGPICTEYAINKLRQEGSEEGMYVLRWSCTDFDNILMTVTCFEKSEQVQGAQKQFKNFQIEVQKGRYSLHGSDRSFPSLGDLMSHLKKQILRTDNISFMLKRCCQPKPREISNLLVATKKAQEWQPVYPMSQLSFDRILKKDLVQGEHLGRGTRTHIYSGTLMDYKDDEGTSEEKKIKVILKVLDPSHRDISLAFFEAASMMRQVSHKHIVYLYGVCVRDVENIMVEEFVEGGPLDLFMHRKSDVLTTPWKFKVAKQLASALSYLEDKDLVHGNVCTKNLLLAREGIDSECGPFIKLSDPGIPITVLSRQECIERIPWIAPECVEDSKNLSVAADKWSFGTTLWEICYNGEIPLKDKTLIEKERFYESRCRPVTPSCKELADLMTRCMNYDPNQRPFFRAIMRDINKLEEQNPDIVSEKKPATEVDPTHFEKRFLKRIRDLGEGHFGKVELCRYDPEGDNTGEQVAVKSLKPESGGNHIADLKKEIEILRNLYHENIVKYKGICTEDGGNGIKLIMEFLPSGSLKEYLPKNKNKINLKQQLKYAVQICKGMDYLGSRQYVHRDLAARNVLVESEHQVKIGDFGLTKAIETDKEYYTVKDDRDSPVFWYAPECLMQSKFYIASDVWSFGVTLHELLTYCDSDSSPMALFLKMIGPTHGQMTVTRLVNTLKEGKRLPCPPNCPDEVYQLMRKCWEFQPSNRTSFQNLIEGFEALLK

As to `CN1C(=O)c2ccccc2N(C)c2cc(N[C@H]3CC[C@H](N4CCCC4)CC3)ncc21` [Compound 74], the inhibition at 1 µM is not above 35% on TAO2, 50 to 75% at ERK5, not above 35% at JAK1 and not above 35% at ACK. For the same compound, the IC50 on ERK5 is 101 to 500 nM. Further, in assay [1], the inhibition at 10 µM was less than 70%. The “Kinase inhibition % at indicated screening concentration: AurB or AurC” value (“Kinase inhibition %” below) in the assay on AurB or AurC (screening concentration 1.0 μM) is recorded as “E (E is ≦35%)”.

Consider `CCOc1cc(C(=O)N2CC[C@H](N(C)C)C2)ccc1Nc1cc2c(cn1)N(C)C(=O)c1ccccc1N2C` [Compound 75], for which the inhibition at 1 µM at TAO2 was not above 35%; at ERK5, more than 90%; at JAK1, not above 35%; at ACK, not above 35%. Moreover, the IC50 at ERK5 is not above 50 nM. The inhibition at 10 µM in assay [1] was more than 85%. Besides, the “Kinase inhibition %” value in the assay with AurB or AurC (screening concentration 1.0 μM) was “E (E is ≦35%)”.

With `CCOc1cc(C(=O)NC2CCOCC2)ccc1Nc1cc2c(cn1)N(C)C(=O)c1ccccc1N2C` [Compound 80], the inhibition at 1 µM is not above 35% at TAO2, 50 to 75% on ERK5, not above 35% at JAK1 and not above 35% at ACK. The IC50 at ERK5 was 101 to 500 nM. In assay [1], the inhibition at 10 µM is less than 70%. Moreover, the “Kinase inhibition %” value with AurB or AurC (screening concentration 1.0 μM) is reported as “E (E is ≦35%)”.

Regarding `CCOc1cc(C(=O)N2CCNC[C@H]2C)ccc1Nc1cc2c(cn1)N(C)C(=O)c1ccccc1N2C` [Compound 82], the inhibition at 0.1 µM at TAO2 is not above 35%; at ERK5 it was 75 to 90%; on JAK1, not above 35%; at ACK, not above 35%. The IC50 on ERK5 was not above 50 nM. Also, the inhibition at 10 µM in assay [1] is more than 85%. In the assay with AurB or AurC (screening concentration 0.1 μM), the “Kinase inhibition %” value was “E (E is ≦35%)”.

Take `CCOc1cc(C(=O)NCCOC)ccc1Nc1cc2c(cn1)N(C)C(=O)c1ccccc1N2C` [Compound 83]: the inhibition at 1 µM was not above 35% at TAO2, 75 to 90% on ERK5, not above 35% at JAK1 and not above 35% on ACK. Further, on ERK5, the IC50 is 101 to 500 nM. Further, in assay [1], the inhibition at 10 µM is less than 70%. The “Kinase inhibition %” value with AurB or AurC (screening concentration 1.0 μM) is reported as “E (E is ≦35%)”.

`CCOc1cc(C(=O)NCCn2ccnc2)ccc1Nc1cc2c(cn1)N(C)C(=O)c1ccccc1N2C` [Compound 84]: the inhibition at 1 µM on TAO2 was not above 35%; on ERK5, more than 90%; at JAK1, not above 35%; at ACK, not above 35%. Also, the IC50 at ERK5 is 50 to 100 nM. In addition, in assay [1], the inhibition at 10 µM was less than 70%. For the same compound, in the assay on AurB or AurC (screening concentration 1.0 μM), the “Kinase inhibition %” value was “E (E is ≦35%)”.

As for `CCOc1cc(C(=O)N(C)CCN(C)C)ccc1Nc1cc2c(cn1)N(C)C(=O)c1ccccc1N2C` [Compound 88], the inhibition at 0.1 µM on TAO2 is not above 35%; on ERK5, more than 90%; at JAK1 it was not above 35%; at ACK, not above 35%. The IC50 at ERK5 was not above 50 nM. The inhibition at 10 µM in assay [1] was more than 85%. The “Kinase inhibition %” value in the assay with AurB or AurC (screening concentration 0.1 μM) is listed as “E (E is ≦35%)”.

Take `CCOc1cc(C(=O)N2CCC(N3CCCC3)CC2)ccc1Nc1cc2c(cn1)N(C)C(=O)c1occc1N2C` [Compound 91, 6-((2-Ethoxy-4-(4-(pyrrolidin-1-yl)piperidine-1-carbonyl)phenyl)amino)-4,9-dimethyl-4H-furo[3,2-e]pyrido[3,4-b][1,4]diazepin-10(9H)-one]: the inhibition at 0.1 µM on TAO2 is not above 35%; at ERK5 it was more than 90%; at JAK1, not above 35%; at ACK, not above 35%. Further, the IC50 at ERK5 is not above 50 nM. For the same compound, in assay [1], the inhibition at 10 µM was more than 85%. In addition, the “Kinase inhibition %” value with AurB or AurC (screening concentration 0.1 μM) is recorded as “E (E is ≦35%)”.

With `CCOc1cc(C(=O)N2CCCC(O)C2)ccc1Nc1cc2c(cn1)N(C)C(=O)c1ccccc1N2C` (centres unmarked) [Compound 93], the inhibition at 1 µM was not above 35% at TAO2, more than 90% on ERK5, not above 35% on JAK1 and not above 35% on ACK. Further, on ERK5, the IC50 was 50 to 100 nM. Moreover, the inhibition at 10 µM in assay [1] is more than 85%. Also, the “Kinase inhibition %” value with AurB or AurC (screening concentration 1.0 μM) is recorded as “E (E is ≦35%)”.

In the case of `CCOc1cc(C(=O)N2CCN(C(C)(C)C)CC2)ccc1Nc1cc2c(cn1)N(C)C(=O)c1ccccc1N2C` [Compound 94], the inhibition at 0.1 µM is not above 35% at TAO2, 75 to 90% on ERK5, not above 35% on JAK1 and not above 35% on ACK. In addition, the IC50 on ERK5 is not above 50 nM. The inhibition at 10 µM in assay [1] fell in the range of 70 to 85%. Besides, the “Kinase inhibition %” value in the assay on AurB or AurC (screening concentration 0.1 μM) is “E (E is ≦35%)”.

With `CCOc1cc(C(=O)N2CCC[C@H](O)C2)ccc1Nc1cc2c(cn1)N(C)C(=O)c1ccccc1N2C` [Compound 96], the inhibition at 0.1 µM was not above 35% at TAO2, more than 90% at ERK5, not above 35% at JAK1 and not above 35% on ACK. Moreover, the IC50 at ERK5 was not above 50 nM. The inhibition at 10 µM in assay [1] was more than 85%. For the same compound, the “Kinase inhibition %” value in the assay with AurB or AurC (screening concentration 0.1 μM) is “E (E is ≦35%)”.

`CCOc1cc(C(=O)N[C@H]2CCCOC2)ccc1Nc1cc2c(cn1)N(C)C(=O)c1ccccc1N2C` [Compound 100]: the inhibition at 1 µM is not above 35% on TAO2, 50 to 75% at ERK5, not above 35% on JAK1 and not above 35% at ACK. The IC50 at ERK5 is more than 500 nM. In assay [1], the inhibition at 10 µM was in the range of 70 to 85%. Besides, the “Kinase inhibition %” value in the assay with AurB or AurC (screening concentration 1.0 μM) is reported as “E (E is ≦35%)”.

`CCOc1cc(C(=O)NCCOCCO)ccc1Nc1cc2c(cn1)N(C)C(=O)c1ccccc1N2C` [Compound 101]: the inhibition at 1 µM is not above 35% at TAO2, 75 to 90% at ERK5, not above 35% at JAK1 and not above 35% at ACK. Also, the IC50 at ERK5 is 101 to 500 nM. Besides, the inhibition at 10 µM in assay [1] was 70 to 85%. Also, the “Kinase inhibition %” value in the assay with AurB or AurC (screening concentration 1.0 μM) is recorded as “E (E is ≦35%)”.

`CN1C(=O)c2ccccc2N(C)c2cc(NC3CCOCC3)ncc21` [Compound 102]: the inhibition at 1 µM at TAO2 is not above 35%; on ERK5 it was 75 to 90%; at JAK1, not above 35%; at ACK, not above 35%. For the same compound, the IC50 at ERK5 is 101 to 500 nM. In addition, the inhibition at 10 µM in assay [1] is less than 70%. In addition, in the assay on AurB or AurC (screening concentration 1.0 μM), the “Kinase inhibition %” value is “E (E is ≦35%)”.

For orientation: IC50 means the concentration that gives 50% inhibition.
